Measurements from paper PMC8710297, “Identification of potent SENP1 inhibitors that inactivate SENP1/JAK2/STAT signaling pathway and overcome platinum drug resistance in ovarian cancer” (Clinical and Translational Medicine, 2021).

Molecular target: T1, SENP1 (Homo sapiens, UniProt Q9P0U3)
T1 sequence (Q9P0U3 1-644): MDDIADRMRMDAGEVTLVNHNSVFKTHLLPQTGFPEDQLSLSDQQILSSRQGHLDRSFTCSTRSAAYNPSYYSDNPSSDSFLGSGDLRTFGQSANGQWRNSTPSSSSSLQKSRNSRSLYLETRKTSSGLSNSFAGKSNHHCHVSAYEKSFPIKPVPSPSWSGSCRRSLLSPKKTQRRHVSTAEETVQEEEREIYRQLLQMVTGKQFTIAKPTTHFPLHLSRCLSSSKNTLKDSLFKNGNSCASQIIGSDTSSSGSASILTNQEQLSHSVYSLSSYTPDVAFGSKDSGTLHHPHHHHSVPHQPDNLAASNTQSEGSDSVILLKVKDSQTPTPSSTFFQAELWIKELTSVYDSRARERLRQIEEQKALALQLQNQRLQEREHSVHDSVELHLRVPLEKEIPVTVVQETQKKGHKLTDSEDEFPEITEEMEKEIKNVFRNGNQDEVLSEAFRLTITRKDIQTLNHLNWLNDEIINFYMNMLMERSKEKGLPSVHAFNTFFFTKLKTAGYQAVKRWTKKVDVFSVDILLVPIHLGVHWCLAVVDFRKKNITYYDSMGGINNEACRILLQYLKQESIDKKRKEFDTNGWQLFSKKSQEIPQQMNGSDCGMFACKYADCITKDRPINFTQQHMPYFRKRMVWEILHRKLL
Experiment: Cellular thermal shift assay
Format: cell-based
Parameters: endogenous in cells; host or cells: IGROV1 CR cells
Settings: IGROV1 CR cells, 4 h, higher temperatures
Procedure: FIGURE 2 UA directly interacts with Sentrin‐specific protease 1 (SENP1). (A) Cellular thermal shift assay to examine the interaction of UA with SENP1. IGROV1 CR cells pretreated with MG132 (10 μM, 1 h) were incubated with DMSO or UA for 4 h before being shifted to indicated temperatures. SENP1 stability was analyzed by using Western blot against SENP1 antibody. Right panel, quantification of non‐denatured SENP1 fraction shown in the left panel. (B) Cell‐free thermal shift assay to examine interactions of UA with SENP1. Purified SENP1 proteins were incubated with DMSO or UA for 4 h before being shifted to the indicated temperatures. SENP1 stability was analyzed by using Western blot against SENP1 antibody. Right panel, quantification of non‐denatured SENP1 fraction shown in the left panel. […] Stability of SENP1(C603A) was analyzed by using Western blot against SENP1 antibody. […] Left; Ultra‐high performance liquid‐chromatography‐MS/MS analyses of associated UA in indicated samples, right; quantification of data shown in left (the binding affinity of UA with SENP1‐C603A was normalized as 1). […]
FIGURE 3 Identification of UAMMC9 from UA derivatives. […] Stability of SENP1(C603A) was analyzed by using Western blot against SENP1 antibody. […]
The qu anti ficatio n of immunohistochemical sta in ing wa s scored blindly at lea st by two […]

| thermal stabilization of SENP1 in cells | SMILES |
| --- | --- |
| stabilized | C[C@H]1[C@H](C)CC[C@]2(C(=O)O)CC[C@]3(C)C(=CC[C@@H]4[C@@]5(C)CC[C@H](O)C(C)(C)[C@@H]5CC[C@]43C)[C@H]12 [UA, ursolic acid, reference compound] |
| directly interacted with SENP1 | C[C@H]1[C@H](C)CC[C@]2(C(=O)NCC(=O)N(C)CCO)CC[C@]3(C)C(=CC[C@@H]4[C@@]5(C)CC[C@H](O)C(C)(C)[C@@H]5CC[C@]43C)[C@H]12 [UAMMC9] |
